From patent US20090203646A1, “USE OF SODIUM NARCISTATIN FOR REDUCING INTERNAL ADHESIONS AND FIBROSIS” (Sun Health Research Institute, priority 2008, published 2009)
“Also recorded” adds a separate entry of the source.

Assays:
[1] = system: intraperitoneal adhesion formation; details: after surgery; cited from earlier work
tumor growth = details: cited from earlier work
Japanese encephalitis = details: flavivvirus infection; cited from earlier work
[2] = system: Encephalitozoan intestinalis; details: cited from earlier work
arthritic rats = assay: Tolerability of the drug in arthritic rats; assay type: in vivo, Lewis rats
Description: While there is variability in the severity of disease development between the batches of adjuvant, there is very little within batch variability. All animals in each experiment were challenged with the same preparation of adjuvant. All animals in this experiment that received CFA developed arthritis from this adjuvant preparation. The arthritis disease pathology that developed in both experiments was the same in onset and severity.

[3] = system: Spleen cells treated with the T-cell dependent mitogen, Con A; assay: Cytokine production by spleen cells treated with Con A (ELISA); assay type: cell-based, Lewis rats
Method: (§1) Immune Cell Cytokine Profile Assessment: A second experiment was completed to determined whether the adhesion reducing action of sodium narcistatin could be due to altering immune cell pro-inflammatory cytokine profiles known to […] adhesion formation. Spleen cells were cultured from young adult Lewis rats and treated in vitro with either Con A or LPS, T or B cell mitogen, respectively. Cultures with and without Con A or LPS were then treated with sodium narcistatin (0, 1, or 10 μg/ml). Cultures were incubated for 24 h at 37° C. After 24 h, supernatants were collected and cytokines were assessed using cytokine specific ELISA assays.
Cell Culture: Spleens were aseptically removed into Hank's balanced salt solution (HBSS). The spleens were placed in a stomacher bag and homogenized for 30 seconds. Spleen cells were triturated with a 10 ml pipette then washed with an additional 10 ml of HBSS and passed through a nylon mesh (Marsh Industries) to remove the extraneous connective tissue. The collected cells were centrifuged and resuspended in 5 ml of a NH4Cl hypotonic buffer for 3 min to lyse the red blood cells. The cells were washed 2× with 10 ml HBSS, centrifuged and resuspended into complete RPMI 1640 media supplemented with 5% fetal calf serum and 1% antibiotic/antimycotic.
Cultures for Cytokine Analysis: The prepared cells were counted using a hemocytometer, then brought to the concentration of 2×10^6 cells/ml. Two ml of the cell preparation were plated into 24 well plates (Falcon: Oxnard, Calif.), in the absence or presence of mitogen and in placed in an incubator 7% CO2, 37° C., for 24 h. After 24 h the culture supernatants were harvested and placed in the freezer at −70° C. until ELISA assay.
Cytokine Production: Duo sets for the detection of IL-1, IL-2, IL-4, IL-10, IFN-γ and TNF-α were obtained from R & D Systems and sandwich ELISAs were used to measure the amount cytokine released into the culture media. High binding microtiter 96-well plates were pre-coated with 100 μl of capture antibody in coating buffer for IL-1, IL-2, IL-4, IL-10, IFN-γ and TNF-α (0.15 M phosphate buffer, pH 7.4). The plates were sealed with plate film (Denville Scientific: South Plainfield, N.J.) and placed at 4° C. overnight. […]
(§2) After color development the plates were stopped with addition of 1N sulfuric acid. Unknown sample cytokine levels were determined through comparison with a standard curve present on each plate using an ELISA reader (Ceres 900 HDI: Bio Tek Instruments Incorporated: Winooski, Vt.). The concentrations were averaged for each treatment group at each time point, expressed as mean±SEM in ng/ml, and subjected to a one-way ANOVA (p<0.05) with Bonferroni post-hoc testing.

[4] = system: Spleen cells treated with the B-cell dependent mitogen, LPS; assay: Cytokine production by spleen cells treated with LPS (ELISA); assay type: cell-based, Lewis rats; details: 1 or 10 μg/ml, 24 h
Method: as §1
Cell Culture: Spleens were aseptically removed into Hank's balanced salt solution (HBSS). […]
Cultures for Cytokine Analysis: The prepared cells were counted using a hemocytometer, then brought to the concentration of 2×10^6 cells/ml. […]
as §2

Rat fibroblast cells = assay: Fibroblast proliferation, tritiated thymidine assay; assay type: cell-based
Method: Fibroblast Proliferation Assessment: A third experiment was completed to determined whether the adhesion reducing action of sodium narcistatin could be due to direct effects of sodium narcistatin to prevent fibroblast proliferation.
Proliferation of rat fibroblasts were assessed using standard tritiated thymidine assays as follows. Rat fibroblast cells were cultured in the presence of narcistatin in concentrations ranging from 0 to 1 mg/ml. The assay was completed in triplicate. Cells were pulsed at 24 h with 0.5 μCi 3H-Thymidine/well and incubated for 48 h at 37° C. At 48 h plates were pulled from the incubator and cells were harvested using a Brandel Cell Harvester. Filters with collected cells were washed 12× with 200 μl of ice cold distilled water). Fiberglass filers containing cells were placed into scintillation vials with 4 ml of ScintSafe Econo2 scintillation fluid. Radioactivity measured using a scintillation counter

[5] = system: splenic adhesions in the peritoneal cavity of rats with inflammatory arthritis; assay: Adhesion formation in rats with CFA-induced inflammatory arthritis (gross observation and adhesion scoring)

O=C(c1ccccc1)c1ccc2n1CCC2C(=O)O (centres unmarked) [Ketorolac, reference compound]
adhesion formation/reformation [1]: reduces adhesion formation

O=C1N[C@@H]2C(=C[C@H](O)[C@@H](O)[C@H]2O)c2cc3c(c(O)c21)OCO3 [Narciclasine, narciclasine]
anticancer properties (tumor growth): anticancer properties

O=C1N[C@H]2[C@H](O)[C@H](O)[C@@H](O)[C@H](O)[C@@H]2c2cc3c(c(O)c21)OCO3 [Pancratastatin]
survival rate (Japanese encephalitis): up to 100% | activity against the parasite [2]: activity | potency in inhibiting tumor growth (tumor growth; relative to sodium narcistatin): more potent than sodium narcistatin

O=C1N[C@@H]2C(=C[C@H](O)[C@H]3OP(=O)(O)O[C@H]32)c2cc3c(c(O)c21)OCO3 [sodium narcistatin]
tolerability (arthritic rats; arthritic animals, 4.5 mg/Kg): tolerate the drug well | body weights, grooming, feeding and drinking behavior (arthritic rats; vehicle- versus narcistatin-treated arthritic rats): no differences | production of IFN-γ ([3]; 1 or 10 μg/ml, 24 h): reduced | production of IL-1 ([3]; 1 or 10 μg/ml, 24 h): reduced | production of IL-2 ([3]; 1 or 10 μg/ml, 24 h): reduced | production of Con-A induced IFN-α ([3]; summary sentence b104): reduced | production of IL-1 (IL-1β) [4]: reduced | production of TNF-α [4]: reduced | inhibition of fibroblast proliferation in vitro (FIG. 6) (Rat fibroblast cells; 0 to 1 mg/ml): potent inhibitor; also recorded: dose dependent | reduction of fibroblast proliferation (Rat fibroblast cells; at 0.001 mg/ml): 50% | fibroblast proliferation reduced to (Rat fibroblast cells; at 0.01 mg/ml): ~0% | number of adhesions in the thoracic and abdominal cavities ([5]; arthritic animals, compared to untreated or vehicle-treated arthritic animals): dramatically reduced | splenic adhesion development in peritoneal cavity (FIG. 2) ([5]; arthritic rats, 4.5 mg/Kg intraperitoneal, day 10 to day 28 post-immunization): little to no adhesions | formation of dense fibrous connective tissue covering over the spleen and pancreas (adhesion scoring, FIG. 3) ([5]; arthritic rats, 4.5 mg/Kg intraperitoneal, blinded subjective scoring): largely prevented

B1: IL-10: anti-inflammatory cytokine (protein, UniProt P22301 19-178, looked up)
Interleukin-10: SPGQGTQSENSCTHFPGNLPNMLRDLRDAFSRVKTFFQMKDQLDNLLLKESLLEDFKGYLGCQALSEMIQFYLEEVMPQAENQDPDIKAHVNSLGENLKTLRLRLRRCHRFLPCENKSKAVEQVKNAFNKLQEKGIYKAMSEFDIFINYIEAYMTMKIRN
adhesion formation/reformation [1]: reduces adhesions; also recorded: limited
